From patent publication US12152010B2, “Preparation method for photo-activatable aggregation-induced emission probe with in-situ generation capability” (South China University of Technology, priority 2018, dated 2024) come the findings set out here.

Data set [1] concerns HeLa cells. As to the kind of experiment: Photo-activatable fluorescence imaging under 405 nm laser in HeLa cells. Type of data set: cell-based. The note with it: in-situ generated compound.
Another data set relates to MCF-7 cells. As to the kind of experiment: Photo-activatable fluorescence imaging under 405 nm laser in MCF-7 cells. Type of data set: cell-based. The conditions noted are these: in-situ generated compound.
In data set [2] the test system is HeLa cells or MCF-7 cells. As to the kind of experiment: Co-dyeing experiments with commercial organelle dyes. The note with it: co-dyeing with Nile Red, BODIPY493/503 or LysoTracker Red. Type of data set: cell-based.
The test system of data set [3] is HeLa cells. In words: Photo-controlled high-spatiotemporal-resolution imaging, 780 nm two-photon laser, multicellular environment. In kind it is cell-based. The note with it: under photo-control. An excerpt: In-situ generated compound III could be used for photo-controlled high-spatiotemporal-resolution imaging. […] The photo-controlled high-spatiotemporal-resolution imaging capability of in-situ generated compound III was particularly useful for monitoring the movement of organelles and studying the physiological functions of organelles in complex physiological environments.

Data set [4] in a line: Quantum yield, fluorescence lifetime, absorption and emission in tetrahydrofuran solution and solid (thin film) state. In kind it is physicochemical. The note with it: for Increase in fluorescence lifetime / Increase in quantum yield: thin film state relative to tetrahydrofuran solution. An excerpt:
By measuring the quantum yield and fluorescence lifetime of compounds IV-1 (method 2-compound IV-1), IV-2 (method 2-compound IV-2) and IV-3 (method 2-compound IV-3) in tetrahydrofuran solution and solid state (thin film state)) (Table 1), the following results were found relative to the cases in the tetrahydrofuran solution: compound IV-1 in the thin film state increased by 94.4 times in the quantum yield, and increased by 6.0 times in the fluorescence lifetime; compound IV-2 in the thin film state increased by 33.4 times in the quantum yield, and increased by 5.2 times in the fluorescence lifetime; compound IV-3 in the thin film state increased by 25.8 times in the quantum yield, and increased by 4.1 times in the fluorescence lifetime; therefore, the aggregation-induced emission property of compound IV was confirmed. […] The in-situ compounds IV-1 to IV-3 also had the photophysical properties in Table 1.

Data set [5] is described as follows: Fluorescence emission in tetrahydrofuran/water or tetrahydrofuran/toluene mixed solutions (aggregation-induced emission). The conditions noted are these: tetrahydrofuran:water (IV-1 509 nm, IV-2 570 nm) or tetrahydrofuran:toluene (IV-3 532 nm), 10^−5 mol/L. In kind it is physicochemical. An excerpt: Mixing tetrahydrofuran and water according to different volume ratios (tetrahydrofuran:water=100:0, 90:10, 80:20, 70:30, 60:40, 50:50, 40:60, 30:70, 20:80, 10:90, 8:92, 6:94, 4:96, 2:98, 1:99) to form mixed solutions with different water contents; dissolving compound IV-1 (i.e., method 2-compound IV-1) into these mixed solutions to make the concentration of the compound at […], and then detecting the fluorescence emission spectrum, with the results as shown in FIG. 1.
Mixing tetrahydrofuran and water according to different volume ratios (tetrahydrofuran:water=100:0, 90:10, 80:20, 70:30, 60:40, 50:50, 40:60, 30:70, 20:80, 10:90, 8:92, 6:94, 4:96, 2:98, 1:99) to form mixed solutions with different water contents; dissolving compound IV-2 (i.e., method 2-compound IV-2) into these mixed solutions to make the concentration of the compound at […], and then detecting the fluorescence emission spectrum, with the results as shown in FIG. 2.
The in-situ generated compound IV-2 (in-situ compound IV-2) had the same photophysical properties as method 2-compound IV-2.
Mixing tetrahydrofuran and toluene according to different volume ratios (tetrahydrofuran:toluene=100:0, 90:10, 80:20, 70:30, 60:40, 50:50, 40:60, 30:70, 20:80, 10:90, 5:95, 1:99) to form mixed solutions with different toluene contents; dissolving compound IV-3 (i.e., method 2-compound IV-3) into these mixed solutions to make the concentration of the compound at […], and then detecting the fluorescence emission spectrum, with the results as shown in FIG. 3.
The in-situ generated compound IV-3 (in-situ compound IV-3) had the same photophysical properties as method 2-compound IV-3.

Where [6] appears, read: tetrahydrofuran solution state (10^−5 mol/L).

With `Oc1ccccc1C1Nc2ccccc2S1` (centres unmarked) [Compound III-1, 2-(2,3-dihydrobenzo[d]thiazol-2-yl)phenol], the Fluorescence intensity increase entry with HeLa cells [1] (irradiation time 10 min) is recorded as “approximately 5.5 times of the initial value”; in the data set with MCF-7 cells (irradiation time 10 min), ~9.0 times of the initial value. Moreover, in data set [2], the “Organelle specificity of photo-activatable fluorescence imaging” value (shortened to “Organelle specificity”) is recorded as “lipid droplet specific photo-activatable fluorescence imaging”.
Turning to `COc1ccc(O)c(C2Nc3ccccc3S2)c1` (centres unmarked) [Compound III-2, 2-(2,3-dihydrobenzo[d]thiazol-2-yl)-4-methoxyphenol], the Fluorescence intensity increase entry in the data set with HeLa cells [1] (irradiation time 10 min) is “approximately 53 times of the initial value”; with MCF-7 cells (irradiation time 10 min), ~18 times of the initial value. Further, the “Organelle specificity” value in data set [2] is on record as “lipid droplet specific photo-activatable fluorescence imaging”. The “Photo-controlled sequential activation of organelles in different cells” value in the data set with HeLa cells [3] is on record as “could sequentially activate lipid droplets in different cells”.
Consider `Oc1ccc(CN2CCOCC2)cc1C1Nc2ccccc2S1` (centres unmarked) [Compound III-3, 2-(2,3-dihydrobenzo[d]thiazol-2-yl)-4-(morpholinomethyl)phenol], for which the results for the Fluorescence intensity increase result in the data set with HeLa cells [1] (scanning time 50 s) and with MCF-7 cells (scanning time 50 s) were “approximately 6.2 times of the initial value” and ~4.5 times of the initial value, respectively. Besides, the “Organelle specificity” value in data set [2] is listed as “lysosomal specific photo-activatable fluorescence imaging”. In addition, the “Photo-controlled sequential activation of organelles in different cells” value with HeLa cells [3] is reported as “could sequentially activate lysosomes in different cells”.
As for `Oc1ccccc1-c1nc2ccccc2s1` [Compound IV-1, 2-(benzo[d]thiazol-2-yl)phenol], in data set [4] (solid state), the Emission wavelength was 509 nm, the Fluorescence lifetime is given as 4.96 ns and the Quantum yield was 66.1%. In data set [4] (setting [6]), this compound displayed an Absorption wavelength of 334 nm, an Emission wavelength of 452 nm, a Fluorescence lifetime of 0.83 ns and a Quantum yield of 0.7%. In data set [4], the “Increase in fluorescence lifetime” value turned out to be 6.0 times and the “Increase in quantum yield” value came out at 94.4 times. In addition, the “Ketoluminescence behaviour with increasing poor-solvent content” value in data set [5] was “showing the aggregation-induced emission property”.
In data set [4] (solid state), `COc1ccc(O)c(-c2nc3ccccc3s2)c1` [Compound IV-2, 2-(benzo[d]thiazol-2-yl)-4-methoxyphenol] showed an Emission wavelength of 570 nm, a Fluorescence lifetime of 4.88 ns and a Quantum yield of 40.1%. In addition, in data set [4] (setting [6]), the Absorption wavelength was 362 nm, the Emission wavelength is reported as 402 nm, the Fluorescence lifetime is reported as 0.94 ns and the Quantum yield was found to be 1.2%. Besides, in data set [4], the “Increase in fluorescence lifetime” value turned out to be 5.2 times and the “Increase in quantum yield” value is listed as 33.4 times. Further, the “Ketoluminescence behaviour with increasing poor-solvent content” value in data set [5] is “showing the aggregation-induced emission property”.
For the compound `Oc1ccc(CN2CCOCC2)cc1-c1nc2ccccc2s1` [Compound IV-3, 2-(benzo[d]thiazol-2-yl)-4-(morpholinomethyl)phenol], in data set [4] (solid state), the Emission wavelength worked out at 532 nm, the Fluorescence lifetime stood at 6.39 ns and the Quantum yield was 28.4%. In data set [4] (setting [6]), this compound showed an Absorption wavelength of 341 nm, an Emission wavelength of 445 nm, a Fluorescence lifetime of 1.56 ns and a Quantum yield of 1.1%. In data set [4], the “Increase in fluorescence lifetime” value is reported as 4.1 times and the “Increase in quantum yield” value was determined as 25.8 times. The “Ketoluminescence behaviour with increasing poor-solvent content” value in data set [5] is recorded as “showing the aggregation-induced emission property”.
